Measured values as given in patent US6290974A, “Protein ingredient for carrying lipophilic nutrients” (priority 1998, dated 2001).
Like-named read-outs stand apart in the source and are kept apart here. Values belong to the compound of their own block, whether it stands above or below them.

Key:
β-lactoglobulin (β-Lg) [1] = target: T1, β-lactoglobulin (β-Lg) (Bos taurus, UniProt P02754); assay: Fluorescence titration of β-Lg with ligands (Equation [1]; Kd and n); format: binding; details: for binding affinity, comparative (in words): compared with other ligands of Table 1 or the retinoids
T1 construct: Isolation of β-Lg from Whey; from tissue; host or cells: whey (milk), purified by bioselective adsorption on N-retinyl-Celite
T1 sequence (P02754 17-178): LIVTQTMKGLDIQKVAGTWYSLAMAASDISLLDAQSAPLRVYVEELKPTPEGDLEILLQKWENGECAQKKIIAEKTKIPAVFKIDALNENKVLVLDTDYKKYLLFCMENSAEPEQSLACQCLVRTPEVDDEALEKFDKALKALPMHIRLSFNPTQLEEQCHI
Description: (§1) Fluorescence spectra were recorded at 23 ° C. with a System 3 Scanning Spectrofluorometer (Optical Technology Devices, Inc., Elmsford, N.Y.) using the ratio mode. Excitation and emission spectra were obtained with 1 μM solutions of β-Lg in 50 mM sodium phosphate, pH 7.0, both in the presence and absence of 2 μM concentrations of the various ligands. Titration of β-Lg with the various ligands was quantified by measuring the fluorescence quenching of the protein tryptophanyl residues (excitation at 287 nm, emission measured at 332 nm). The spectrofluorometer cuvette contained 2.5 ml of 1 μM β-Lg in the phosphate buffer to which 2.5-μl increments of the ligand solution in ethanol or ethyl ether were added with a micropipette. Dufour et al., (1990) FEBS Lett. 277, 223. […] Cogan et al., (1976) Eur. J. Biochem. 65, 71.
(§2) The titration can also be followed by measuring the increase in vitamin D or cholesterol fluorescence that was due to energy transfer from the tryptophanyl residue. Thus, with excitation at 287 nm, emission was measured at 412 nm for vitamin D or 390 nm for cholesterol.
The titration data can be used to evaluate the equilibrium dissociation constant and the number of binding sites per monomer as has been previously described. Cogan et al., (1976) Eur. J. Biochem. 65, 71; Dufour and Haertle, (1991) Biochim. Biophys. Acta 1079, 316; Wang et al., (1997) J. Dairy Sci. 80, 1047. The linear regression equation
PT a=(1/n)[RT a/(1-a)]-Kd /n
is used to calculate n, the number of binding sites per molecule of protein and Kd, the apparent dissociation constant. In this equation, PT is total protein concentration, and RT is total ligand concentration.
Cho et al., (1994) J. Biol. Chem. 269, 11102; Dufour and Haertle, (1991) Biochim. Biophys. Acta 1079, 316; Wang et al., (1997) J. Dairy Sci. 80, 1047. […] Cho et al., (1994) J. Biol. Chem. 269, 11102; Dufour and Haertle, (1991) Biochim. Biophys. Acta 1079, 316; Wang et al., (1997) J. Dairy Sci. 80, 1047.
(§3) Possible binding of vitamin D3 to β-Lg was also investigated by recording the fluorescence emission at 412 nm as a function of the excitation wavelength for vitamin solutions with and without added β-Lg (FIG. 4). […] In a titration experiment, the protein fluorescence at 332 nm with excitation at 287 nm was determined as a function of vitamin D3 concentration (FIG. 3). […] Also, the increase of vitamin D3 fluorescence at 412 nm with excitation at 287 nm for varying vitamin concentrations can be plotted according to Equation [1] as shown in FIG. 5B.
Dufour and Haertle, (1991) Biochim. Biophys. Acta 1079, 316; Wang et al., (1997) J. Dairy Sci. 80, 1047.
The potential binding of both cholesterol and 7-dehydrocholesterol to β-Lg was examined by fluorescence spectroscopy, essentially as described above for vitamin D (Example 3).
The titration data were used to calculate the equilibrium dissociation constant (Kd) and the number of binding sites per β-Lg monomer (n), as described in Example 3.

β-lactoglobulin (β-Lg) [2] = target: T1, β-lactoglobulin (β-Lg); details: in vitro; cited from earlier work
β-lactoglobulin (β-Lg) [3] = target: T1, β-lactoglobulin (β-Lg); assay: Fluorescence emission/excitation spectra of β-Lg with and without ligand; format: binding
Description: as §1, §2
Binding of hydrophobic ligands in proximity to Trp19 results in energy transfer between this protein residue and the ligand, and thus changes in the fluorescence emission spectra can be used to follow complex formation. Fluorescence emission spectra of β-Lg with and without bound vitamin D2 that result from excitation of tryptophanyl residues at 287 nm are shown in FIG. 1.
as §3
The potential binding of both cholesterol and 7-dehydrocholesterol to β-Lg was examined by fluorescence spectroscopy, essentially as described above for vitamin D (Example 3). […] A plot of the data that were obtained with varying cholesterol concentrations according to Equation [1] from Example 3 was similar to that for vitamin D3, shown in FIG. 5.
Studies were undertaken to evaluate whether other fat-soluble vitamins bind to β-Lg. Fluorescence emission spectra of β-Lg in the presence and absence of vitamin E, vitamin K1, or vitamin K2 were obtained essentially as described in Example 3.

[4] = Kd, Table 2, β-Lg titration as in Example 3
[5] = 1 μM β-Lg, 50 mM phosphate pH 7.0, 23 °C, triplicate titrations (vitamin D2: five; ergosterol: single)
[6] = 1 μM β-Lg, 50 mM phosphate pH 7.0, 23 °C, triplicate titrations (vitamin D2: five; ergosterol: single), read-out: Kd (apparent dissociation constant), Table 1
[7] = β-Lg titration as in Example 3, read-out: Kd, Table 2

SMILES: CC1=C(/C=C/C(C)=C/C=C/C(C)=C/C(=O)O)C(C)(C)CCC1 [Retinoic acid, retinoic acid]
Kd (β-lactoglobulin (β-Lg) [1]; [4]): 17 nM | n, Table 2 (β-lactoglobulin (β-Lg) [1]; β-Lg titration as in Example 3): 0.9 mol/mol β-LG

SMILES: C=CC1=C(C)c2cc3[nH]c(cc4nc(cc5[nH]c(cc1n2)c(C)c5CCC(=O)O)C(CCC(=O)O)=C4C)c(C)c3C=C [protoporphyrin IX]
binding to β-Lg reported (in words) (β-lactoglobulin (β-Lg) [2]): reported to bind

n, Table 2 (β-lactoglobulin (β-Lg) [1]; β-Lg titration as in Example 3): 0.8 mol/mol β-LG
SMILES: CCCCCCCCCCCCCCCC(=O)OC/C=C(C)/C=C/C=C(C)/C=C/C1=C(C)CCCC1(C)C [Retinyl palmitate (R), Retinyl palmitate]

SMILES: C=C1CC[C@H](O)C/C1=C/C=C1\CCC[C@]2(C)[C@@H]([C@H](C)/C=C/[C@H](C)C(C)C)CC[C@@H]12 [Vitamin D2, ergocalciferol]
mol bound per mol of protein (Example 4) (β-lactoglobulin (β-Lg) [1]): 2 mol~mol^-1 | n (number of binding sites per molecule of protein), Table 1 (β-lactoglobulin (β-Lg) [1]; [5]): 2.00 mol/mol of protein | Kd (β-lactoglobulin (β-Lg) [1]; [6]): 4.91 nM | ligand concentration at which fluorescence quenching appeared to reach a maximum (β-lactoglobulin (β-Lg) [1]; 1 μM β-Lg, emission 332 nm): ~2 µM | binding affinity, comparative (in words) (β-lactoglobulin (β-Lg) [1]): significantly greater | affinity of β-Lg relative to that for vitamin A and other retinoids (greater by) (β-lactoglobulin (β-Lg) [1]; compared with vitamin A and other retinoids): about 10 fold | n (β-lactoglobulin (β-Lg) [1]; quenching at 332 nm, excitation 287 nm, five titrations, 1 μM β-Lg): 2.00±0.16 | Kd (β-lactoglobulin (β-Lg) [1]; quenching at 332 nm, excitation 287 nm, five titrations, 1 μM β-Lg, read-out: Kd): 4.91 ± 3.28 nM | n, Table 2 (β-lactoglobulin (β-Lg) [1]; β-Lg titration as in Example 3): 2.0 mol/mol β-LG | Kd (β-lactoglobulin (β-Lg) [1]; [7]): 4.9 nM | β-Lg fluorescence, 300 to 360 nm (β-lactoglobulin (β-Lg) [3]): quenched | ligand fluorescence at 412 nm with excitation around 287 nm in presence of β-Lg (β-lactoglobulin (β-Lg) [3]; 2 μM ligand, 1 μM β-Lg, pH 7.0, 23 °C): increased

mol bound per mol of protein (Example 4) (β-lactoglobulin (β-Lg) [1]): 2 mol~mol^-1 | n (number of binding sites per molecule of protein), Table 1 (β-lactoglobulin (β-Lg) [1]; [5]): 2.02 mol/mol of protein | Kd (β-lactoglobulin (β-Lg) [1]; [6]): 6.25 nM | binding affinity, comparative (in words) (β-lactoglobulin (β-Lg) [1]): significantly greater
SMILES: CC(C)[C@@H](C)/C=C/[C@@H](C)[C@H]1CC[C@H]2C3=CC=C4C[C@@H](O)CC[C@]4(C)[C@H]3CC[C@]12C [Ergosterol, ergosterol]

n values, molecules bound per β-Lg monomer (Example 6) (β-lactoglobulin (β-Lg) [1]): 1.9 | molecules bound per molecule of protein (β-lactoglobulin (β-Lg) [1]; per molecule of protein / β-Lg monomer): ~2 molecules | Kd (β-lactoglobulin (β-Lg) [1]; read-out: Kd values (Example 6)): 90 nM | Kd (β-lactoglobulin (β-Lg) [1]; read-out: order of magnitude of Kd (Example 6)): ~1 nM | n, Table 2 (β-lactoglobulin (β-Lg) [1]; β-Lg titration as in Example 3): 1.9 mol/mol β-LG | Kd (β-lactoglobulin (β-Lg) [1]; [7]): 90 nM | β-Lg fluorescence, 280 to 300 nm (β-lactoglobulin (β-Lg) [3]): increase | β-Lg fluorescence, 300 to 360 nm (β-lactoglobulin (β-Lg) [3]): quenched
SMILES: CC1=C(C/C=C(\C)CCC[C@H](C)CCC[C@H](C)CCCC(C)C)C(=O)c2ccccc2C1=O [Vitamin K1, 2-methyl-3-phytyl-1,4-napthho-quinone]

SMILES: Cc1c(C)c2c(c(C)c1O)CCC(C)(CCCC(C)CCCC(C)CCCC(C)C)O2 (stereo not drawn) [Vitamin E, α-tocopherol]
n values, molecules bound per β-Lg monomer (Example 6) (β-lactoglobulin (β-Lg) [1]): 1 | Kd (β-lactoglobulin (β-Lg) [1]; Kd values (Example 6)): 91 nM | Kd (β-lactoglobulin (β-Lg) [1]; [4]): 91 nM | Kd (β-lactoglobulin (β-Lg) [1]; order of magnitude of Kd (Example 6)): ~1 nM | n, Table 2 (β-lactoglobulin (β-Lg) [1]; β-Lg titration as in Example 3): 1.0 mol/mol β-LG | β-Lg fluorescence, 280 to 300 nm (β-lactoglobulin (β-Lg) [3]): increase | β-Lg fluorescence, 300 to 360 nm (β-lactoglobulin (β-Lg) [3]): no change

SMILES: CCCCCCCCCCCCCCCC(=O)O [Palmitic acid]
Kd (β-lactoglobulin (β-Lg) [1]; [4]): 490 nM | n, Table 2 (β-lactoglobulin (β-Lg) [1]; β-Lg titration as in Example 3): 1.2 mol/mol β-LG
